According to ChEMBL document CHEMBL1147327, “Developments in marine natural products. Receptor-specific bioactive compounds” (1993):
The source made the active and inactive calls. No cut-off for these calls is given here.

Key:
[1] = test system: Candida albicans; experiment: Antifungal activity against Candida albicans in presence of 100 ppm exogenous ergosterol by agar disk diffusion assay; format: functional, organism-based
[2] = test system: Candida albicans; experiment: Antifungal activity against Candida albicans by agar disk diffusion assay; format: functional, organism-based
[3] = test system: Candida albicans; experiment: Antifungal activity against Candida albicans at 0.5 ug/disk by agar disk diffusion assay; format: functional; conditions: read-out: IZ
[4] = test system: Candida albicans; experiment: Antifungal activity against Candida albicans at 10 ug in presence of 20 ppm exogenous ergosterol; format: functional

SMILES | zone of inhibition at 0.5 µg/disc [3] [mm] | further results
CC1=C[C@@H]2C[C@@H](C)[C@]3(C)C[C@@H]([C@@]4(C)CC[C@@H]([C@@H](C)C(=O)O)OO4)O[C@]3(C)[C@@H]2CC1 |  | Activity [1]: Active
COC(=O)[C@H](C)[C@@H]1CC[C@](C)([C@@H]2C[C@@]3(C)[C@H](C)C[C@H]4C=C(C)CC[C@H]4[C@@]3(C)O2)OO1 |  | Activity [2]: inactive
CCCCCCCCCCCCCC(=O)O[C@@H](c1cnco1)c1nc([C@@H](O)C[C@@H](O)[C@@H](O)[C@@H](C)O)co1 [BENGAZOLE A] | 9 | 
CCC(C)CCCCCCCCCCC(=O)O[C@@H](c1cnco1)c1nc([C@H](O)C[C@@H](O)[C@@H](O)[C@@H](C)O)co1 (stereo partly specified) [BENGAZOLE B1] | 9 | 
CC(C)CCCCCCCCCCCC(=O)O[C@@H](c1cnco1)c1nc([C@@H](O)C[C@@H](O)[C@@H](O)[C@@H](C)O)co1 [BENGAZOLE B] | 9 | Activity [4]: 50%
CCCCCCCCCCCCC(=O)O[C@@H](c1cnco1)c1nc([C@@H](O)C[C@@H](O)[C@@H](O)[C@@H](C)O)co1 [BENGAZOLE C] | 9 | 
CC(C)CCCCCCCCCCC(=O)O[C@@H](c1cnco1)c1nc([C@@H](O)C[C@@H](O)[C@@H](O)[C@@H](C)O)co1 [BENGAZOLE D] | 9 | 
CCCCCCCCCCCCCCC(=O)O[C@@H](c1cnco1)c1nc([C@@H](O)C[C@@H](O)[C@@H](O)[C@@H](C)O)co1 [BENGAZOLE E] | 9 | 
CCC(C)CCCCCCCCCCCC(=O)O[C@@H](c1cnco1)c1nc([C@@H](O)C[C@@H](O)[C@@H](O)[C@@H](C)O)co1 (stereo partly specified) [BENGAZOLE F] | 9 | 
CCCCCCCCCCCCCCCC(=O)O[C@@H](c1cnco1)c1nc([C@@H](O)C[C@@H](O)[C@@H](O)[C@@H](C)O)co1 [BENGAZOLE G] | 9 | 
